The subject of data set [1] is RSV A2. The data set is described as follows: RSV plaque reduction assay. The note with it: human respiratory syncytial virus, HepG2; Hep-G2 cells, RSV A2, mean of at least two experiments. The class given is cell-based, respiratory syncytial virus (RSV). As for the experimental part: Compounds were subjected to RSV plaque reduction assays according to the following protocol.
Hep-G2 cells (ECACC, 85011430) were passaged in flasks and seeded in 24-well plates in DMEM containing antibiotics and supplemented with 10% FBS. During inoculation and subsequent incubation, cells were cultured in DMEM containing 2% FBS. 100 plaque forming unit/well of RSV (RSV A2 ECACC, 0709161v) was mixed with eight serial dilutions of compound. Subsequently, 100 μL of the virus/compound mixtures was added to confluent Hep-G2 cell monolayers. The cells and virus/compound mixtures were incubated at 37° C. in a humidified 5% CO2 incubator for 2 h prior to removal of the inoculum and addition of 1 mL of overlay (DMEM containing 2% FBS and 0.8% CMC) containing compound dilutions. The cells and were incubated at 37° C. in a humidified 5% CO2 incubator for 2 days.
Cells were washed with PBS before adding 75/25% v/v EtOH/MeOH, for 3 min. Fixative was removed and plates were washed with PBS. A pre-titrated amount of the primary antibody was added in 200 μL PBS/2% milk powder, and plates incubated for 90 min at 37° C. The plates were washed 3 times with PBS/0.05% Tween20 before addition of rabbit anti-goat horse radish peroxidase in 200 μL PBS/2% milk powder, and incubated for 1 h at 37° C. Following three wash steps with PBS/0.05% Tween20, 200 μL ready-to-use TrueBlue was added and plates were incubated at rt for 10-15 min before washing with water. After removal of water, plates were air-dried in the dark.
Plates were scanned and analysed using the Immunospot S6 Macro analyser, which is equipped with BioSpot analysis software for counting immunostained plaques (virospots). Plaque counts were used to calculate % infection relative to the mean of the plaque count in the virus control wells for RSV. The EC50 value was calculated as 50% reduction in signal, respectively, by interpolation of inhibition curves fitted with a 4-parameter nonlinear regression with a variable slope in Dotmatics. Plaque EC50 and cell toxicity CC50 values are a mean of at least two experiments and figures are rounded to whole units.
A general note: In a plaque reduction assay, fewer plaques than in the control indicate reduced infectivity or spread.

Data set [2] can be described thus: Cell cytotoxicity CC50. It counts as cell-based. The note with it: human; mean of at least two experiments.
Data set [3] is described as follows: Liver microsomal stability, rat. The class given is in vitro ADME. The note with it: pH 7.4; rat liver microsomes, 0.5 mg/mL protein, 1 μM compound, NADPH; >80% remaining at 45 min denoted >140; read-out: Liver Microsomal Stability: t1/2 (min); rat. The protocol: (§1) Compounds were subjected to the following assays to investigate liver microsomal stability, permeability and plasma protein binding.
(§2) Pooled liver microsomes were purchased from a reputable commercial supplier and stored at −80° C. prior to use. Microsomes (final protein concentration 0.5 mg/mL), 0.1 M phosphate buffer pH 7.4 and test compound (final substrate concentration 1 μM; final DMSO concentration 0.25%) were pre-incubated at 37° C. prior to the addition of NADPH (final concentration 1 mM) to initiate the reaction. The final incubation volume was 50 μL. A control incubation was included for each compound tested where 0.1 M phosphate buffer pH 7.4 was added instead of NADPH (minus NADPH). Two control compounds were included with each species. All incubations were performed singularly for each test compound. Each compound was incubated for 0, 5, 15, 30 and 45 min. The control (minus NADPH) was incubated for 45 min only. The reactions were stopped by transferring incubate into acetonitrile at the appropriate time points, in a 1:3 ratio. The termination plates are centrifuged at 3,000 rpm for 20 min at 4° C. to precipitate the protein. Following protein precipitation, the sample supernatants were combined in cassettes of up to 4 compounds, internal standard added, and samples analysed by LC-MS/MS. From a plot of ln peak area ratio (compound peak area/internal standard peak area) against time, the gradient of the line was determined. Subsequently, half-life (t1/2) and intrinsic clearance (CLint) were calculated.
A general note: Microsomes from liver hold many membrane-bound enzymes, among them those of drug oxidation.

A short description of data set [4]: Liver microsomal stability, dog. The class given is in vitro ADME. Conditions: pH 7.4; dog liver microsomes, 0.5 mg/mL protein, 1 μM compound, NADPH; >80% remaining at 45 min denoted >140; read-out: Liver Microsomal Stability: t1/2 (min); dog. As for the experimental part:
as §1, §2

A short description of data set [5]: Liver microsomal stability, human. The note with it: pH 7.4; human liver microsomes, 0.5 mg/mL protein, 1 μM compound, NADPH; >80% remaining at 45 min denoted >140; read-out: Liver Microsomal Stability: t1/2 (min); human. It counts as in vitro ADME. As for the experimental part: as §1, §2

Usually EC50 stands for the concentration that produces a half-maximal response. A lower EC50 goes with greater potency. One may read the CC50 as the concentration that lowers cell viability or growth by half. High values mean lower toxicity to the cells, low ones greater toxicity to the cells. In turn, `O=C(N[C@H]1N=C(c2ccccc2)c2ccccc2NC1=O)c1cn(C2CCC(F)(F)CC2)nc1-c1ccc(NC2CC2)nc1F` [Example 34, 3-[6-(Cyclopropylamino)-2-fluoropyridin-3-yl]-1-(4,4-difluorocyclohexyl)-N-[(3S)-2-oxo-5-phenyl-1,3-dihydro-1,4-benzodiazepin-3-yl]pyrazole-4-carboxamide] had an EC50 in data set [1] of 96 nM. The same compound came in with a CC50 in data set [2] above 25000 nM. The half-life was determined as 121 min in data set [3], 85.8 min in data set [4] and 119 min in data set [5].

As to `O=C(N[C@H]1N=C(c2ccccc2)c2cccc(F)c2NC1=O)c1cn(C2CCC(F)(F)CC2)nc1-c1ccc(NC2CC2)nc1F` [Example 35, 3-[6-(Cyclopropylamino)-2-fluoropyridin-3-yl]-1-(4,4-difluorocyclohexyl)-N-[(3S)-9-fluoro-2-oxo-5-phenyl-1,3-dihydro-1,4-benzodiazepin-3-yl]pyrazole-4-carboxamide], the midpoint of the response in data set [1], the EC50, lay at 60 nM. This compound also registered a CC50 in data set [2] above 25000 nM. Further, the half-life amounted to 181 min in data set [3], 90.9 min in data set [4] and 164 min in data set [5].

In the case of `CCn1ncc(C(=O)N[C@H]2N=C(c3ccccc3)c3ccccc3NC2=O)c1-c1ncc(NC)cc1F` [Example 38, 1-Ethyl-5-(3-fluoro-5-(methylamino)pyridin-2-yl)-N—((S)-2-oxo-5-phenyl-2,3-dihydro-1H-benzo[e][1,4]diazepin-3-yl)-1H-pyrazole-4-carboxamide], the midpoint of the response in data set [1], the EC50, lay at 105 nM. The compound also displayed a CC50 in data set [2] above 25000 nM. The figures for the half-life in data set [3], in data set [4] and in data set [5] were 42 min, 48.6 min and 35.2 min, respectively.

In turn, `CCNc1cnc(-c2c(C(=O)N[C@H]3N=C(c4ccccc4)c4ccccc4NC3=O)cnn2CC)c(F)c1` [Example 39, 1-Ethyl-5-[5-(ethylamino)-3-fluoropyridin-2-yl]-N-[(3S)-2-oxo-5-phenyl-1,3-dihydro-1,4-benzodiazepin-3-yl]pyrazole-4-carboxamide] gave an EC50 in data set [1] of 62 nM. In data set [2], this compound returned a CC50 above 25000 nM. Besides, the half-life came to 21.4 min in data set [3], 45.7 min in data set [4] and 62 min in data set [5].

The compound `CCNc1ccc(-c2c(C(=O)N[C@H]3N=C(c4ccccc4)c4cccc(F)c4NC3=O)cnn2C2COC2)c(F)n1` [Example 40, 5-[6-(Ethylamino)-2-fluoropyridin-3-yl]-N-[(3S)-9-fluoro-2-oxo-5-phenyl-1,3-dihydro-1,4-benzodiazepin-3-yl]-1-(oxetan-3-yl)pyrazole-4-carboxamide] came in with an EC50 in data set [1] of 67 nM. The compound further came in with a CC50 in data set [2] above 25000 nM. Moreover, the values for the half-life in data set [3], in data set [4] and in data set [5] were 81.1 min, 72.9 min and 49.6 min, respectively.

`O=C(N[C@H]1N=C(c2ccccc2)c2ccccc2NC1=O)c1cnn(C2CCOCC2)c1-c1ccc(C2CC2)cc1F` [Example 43, 5-(4-Cyclopropyl-2-fluorophenyl)-1-(oxan-4-yl)-N-[(3S)-2-oxo-5-phenyl-1,3-dihydro-1,4-benzodiazepin-3-yl]pyrazole-4-carboxamide]: a half-maximal effect in data set [1] (EC50) was put at 48 nM. In addition, the CC50 in data set [2] is above 25000 nM. Also, the half-life came out at 44.9 min in data set [3], 161 min in data set [4] and 170 min in data set [5].

Turning to `O=C(N[C@H]1N=C(c2ccccc2)c2cccc(F)c2NC1=O)c1cnn(C2CCOCC2)c1-c1ccc(C2CC2)cc1F` [Example 44, 5-(4-Cyclopropyl-2-fluorophenyl)-N-[(3S)-9-fluoro-2-oxo-5-phenyl-1,3-dihydro-1,4-benzodiazepin-3-yl]-1-(oxan-4-yl)pyrazole-4-carboxamide], the midpoint of the response in data set [1], the EC50, lay at 48 nM. The same compound had a CC50 in data set [2] above 25000 nM. The half-life stood at 55.9 min in data set [3], 90 min in data set [4] and 201 min in data set [5].

Compound `CCc1ccc(-c2c(C(=O)N[C@H]3N=C(c4ccccc4)c4cccc(F)c4NC3=O)cnn2C2CCOCC2)c(F)c1` [Example 47, 5-(4-Ethyl-2-fluorophenyl)-1-(oxan-4-yl)-N-[(3S)-9-fluoro-2-oxo-5-phenyl-1,3-dihydro-1,4-benzodiazepin-3-yl]pyrazole-4-carboxamide] came in with an EC50 in data set [1] of 30 nM. Further, the CC50 in data set [2] was above 25000 nM. Also, the half-life in data set [3] was 33.1 min; in data set [4], 81.4 min; in data set [5] it was 105 min.

As to `CCn1ncc(C(=O)N[C@H]2N=C(c3ccccc3)c3cccc(F)c3NC2=O)c1-c1cc(C2CC2)cnc1F` [Example 48, 5-(5-Cyclopropyl-2-fluoropyridin-3-yl)-1-ethyl-N-[(3S)-9-fluoro-2-oxo-5-phenyl-1,3-dihydro-1,4-benzodiazepin-3-yl]pyrazole-4-carboxamide], the EC50 in data set [1] came out at 92 nM. The compound also yielded a CC50 in data set [2] above 25000 nM. Also, the values for the half-life in data set [3], in data set [4] and in data set [5] were 118 min, above 140 min and 355 min, respectively.

On to `O=C(N[C@H]1N=C(c2ccccc2)c2cccc(F)c2NC1=O)c1cnn(C2CCOCC2)c1-c1ccc(C2CC2)nc1F` [Example 49, 5-(6-Cyclopropyl-2-fluoropyridin-3-yl)-N-[(3S)-9-fluoro-2-oxo-5-phenyl-1,3-dihydro-1,4-benzodiazepin-3-yl]-1-(oxan-4-yl)pyrazole-4-carboxamide], for which a half-maximal response in data set [1] (EC50) required 100 nM. This compound also displayed a CC50 in data set [2] above 25000 nM. Also, the values for the half-life in data set [3], in data set [4] and in data set [5] were 73.4 min, 110 min and 181 min, respectively.

`O=C(N[C@H]1N=C(c2ccccc2)c2ccccc2NC1=O)c1cnn(C2CCOCC2)c1-c1cc(C2CC2)cnc1F` [Example 50, 5-(5-Cyclopropyl-2-fluoropyridin-3-yl)-1-(oxan-4-yl)-N-[(3S)-2-oxo-5-phenyl-1,3-dihydro-1,4-benzodiazepin-3-yl]pyrazole-4-carboxamide] had an EC50 in data set [1] of 81 nM. Moreover, the CC50 in data set [2] was above 25000 nM. Besides, the figures for the half-life in data set [3], in data set [4] and in data set [5] were 44.2 min, 163 min and 94.3 min, respectively.

`O=C(N[C@H]1N=C(c2ccccc2)c2cccc(F)c2NC1=O)c1cnn(C2CCOCC2)c1-c1cc(C2CC2)cnc1F` [Example 51, 5-(5-Cyclopropyl-2-fluoropyridin-3-yl)-N-[(3S)-9-fluoro-2-oxo-5-phenyl-1,3-dihydro-1,4-benzodiazepin-3-yl]-1-(oxan-4-yl)pyrazole-4-carboxamide] showed an EC50 in data set [1] of 53 nM. Besides, in data set [2], the CC50 is above 7790 nM. Moreover, the results for the half-life in data set [3], in data set [4] and in data set [5] were 92.8 min, 212 min and 171 min, respectively.

Compound `CCc1ccc(-c2c(C(=O)N[C@H]3N=C(c4ccccc4)c4cccc(F)c4NC3=O)cnn2C2CCOCC2)c(F)n1` [Example 53, 5-(6-Ethyl-2-fluoropyridin-3-yl)-1-(oxan-4-yl)-N-[(3S)-9-fluoro-2-oxo-5-phenyl-1,3-dihydro-1,4-benzodiazepin-3-yl]pyrazole-4-carboxamide] returned an EC50 in data set [1] of 72 nM. This compound displayed a CC50 in data set [2] above 25000 nM. Moreover, the half-life in data set [3] is 200 min; in data set [4], 183 min; in data set [5], above 140 min.

The values are drawn from patent US20220409629A1, “BENZODIAZEPINE DERIVATIVES FOR TREATING A RESPIRATORY SYNCYTIAL VIRUS (RSV) INFECTION” (priority 2019, published 2022).
